Common to all, as to assay: microbe, parasite or virus in culture
The subject of experiment [1] is A/California/07/2009 (H1N1).
Experiment [2] deals with A/Denmark/524/2009 (H1N1).
The test system of another experiment is A/Texas/04/2009 (H1N1).
The subject of experiment [3] is A/Washington/29/2009 (H1N1).
Experiment [4] has as its system B/Wisconsin/1/2010 (Yamagata). The conditions noted are these: Influenza B virus.
Experiment [5] relates to B/Brisbane/60/2008 (Victoria). The conditions noted are these: Influenza B virus.
Experiment [6] concerns A/Switzerland/9715293/2013 (H3N2).
The subject of experiment [7] is A/Denmark/528/2009 (H1N1).
In experiment [8] the test system is B/Memphis/20/1996 (Yamagata). The conditions noted are these: Influenza B virus.
The subject of experiment [9] is B/Utah/09/2014 (Yamagata). As to conditions: Influenza B virus.
The subject of experiment [10] is B/Phuket/3073/2013 (Yamagata). As to conditions: Influenza B virus.

One may read the EC50 as the concentration at which the effect is half-maximal. Higher therefore signals weaker potency. Take `C[C@@H](c1ccccc1)n1nnnc1[C@H](c1ccsc1)N1CCC(n2c(=O)[nH]c3ccccc32)CC1` [Compound 12a, 1‐{1‐[(S)‐{1‐[(1 S)‐1‐phenylethyl]‐1 H‐1,2,3,4‐tetrazol‐5‐yl}(thiophen‐3‐yl)methyl]piperidin‐4‐yl}‐2,3‐dihydro‐1 H‐1,3‐benzodiazol‐2‐one]: the EC50 in experiment [1] was 1300 ± 400 nM; in experiment [2], 800 ± 200 nM; in the experiment on A/Texas/04/2009 (H1N1), 1100 ± 400 nM; in [3] it was 900 ± 300 nM; in experiment [4], 800 ± 300 nM; in [5] it was 600 ± 300 nM. Besides, the EC50 in experiment [6] was found to be 1400 ± 600 nM; in experiment [7], 900 ± 300 nM; in experiment [8] it was 2700 ± 200 nM; in experiment [9] it was 1500 ± 300 nM; in experiment [10] it was 1200 ± 200 nM.

As to `O=c1[nH]c2ccccc2n1C1CCN(C(CCc2ccccc2)c2nnnn2-c2ccc3c(c2)OCCO3)CC1` (centres unmarked) [Compound 5, 1‐(1‐{1‐[1‐(2,3‐dihydro‐1,4‐benzodioxin‐6‐yl)‐1,2,3,4‐tetrazol‐5‐yl]‐3‐phenylpropyl}piperidin‐4‐ yl)‐3 H‐1,3‐benzodiazol‐2‐one], the EC50 worked out at 4500 ± 700 nM in [1]; 1800 ± 400 nM in experiment [2]; 3500 ± 1100 nM in the experiment with A/Texas/04/2009 (H1N1); 1600 ± 500 nM in experiment [3]; 900 ± 200 nM in [4]; 1000 ± 300 nM in [5].

Source of the values: paper PMC5854701 (Scientific Reports, 2018).
